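Five compound concentrations were applied to cells in 96-well plates for 48 hours; endpoints were derived by simple linear interpolation of the resulting dose-response curve. The concentration for 50% growth inhibition is given as GI50. TGI marks complete inhibition of growth.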
Key:
Experiment in all cases: NCI tumour cell line growth inhibition, 48 h
[1] = test system: DMS 273 small cell lung
[2] = test system: HT29 colon
[3] = test system: KM12 colon
[4] = test system: M14 melanoma
[5] = test system: TK-10 renal
[6] = test system: UACC-257 melanoma
[7] = test system: KM20L2 colon
[8] = test system: BT-549 breast
[9] = test system: DU-145 prostate
[10] = test system: HS 578T breast

Compound | TGI [1] [µM] | TGI [2] [µM] | TGI [3] [µM] | TGI [4] [µM] | TGI [5] [µM] | TGI [6] [µM] | GI50 [1] [µM] | GI50 [2] [µM] | GI50 [7] [µM] | TGI [7] [µM] | GI50 [4] [µM] | GI50 [6] [µM] | GI50 [8] [µM] | TGI [8] [µM] | GI50 [9] [µM] | TGI [9] [µM] | GI50 [10] [µM] | TGI [10] [µM] | GI50 [3] [µM] | GI50 [5] [µM]
O=C[C@]12CC=C3OC4OC5(CCCCC5)OC4[C@H]3[C@H]1C(=O)C=CC2=O (stereo not given in full) | > 100 | > 100 | > 100 | 38.7 | 81.3 | 45.3 |  |  |  |  |  |  |  |  |  |  |  |  |  | 
Cc1cc2nc3c(=O)[nH]c(=O)nc-3n(CC(O)C(O)C(O)CO)c2cc1N (stereo not given) | > 100 | > 100 | > 100 | > 100 | > 100 |  |  |  |  |  |  |  |  |  |  |  |  |  |  | 
CC[O-].CC[O-].COc1ccc(C(=O)[CH-]C(C)=O)cc1OC.COc1ccc(C(=O)[CH-]C(C)=O)cc1OC.[Ti+4] | > 100 | > 100 |  | > 100 |  | > 100 | 44.4 | 47.8 | 53.1 | > 100 | 83.8 | > 100 |  |  |  |  |  |  |  | 
Nc1c(C(=O)c2ccc(C#CCN3CCOCC3)cc2)cnn1-c1ccc(F)cc1 |  | > 25 | > 25 | > 25 | > 25 | > 25 |  | > 25 |  |  | > 25 | > 25 | > 25 | > 25 | > 25 | > 25 | > 25 | > 25 | > 25 | > 25
Cc1ccc(/C=C(/C#N)n2nnc3ncccc32)cc1 |  | 11.5 | 14.9 | 17.7 | 9.22 | 22.2 |  | 2.08 |  |  | 2.89 | 4.24 | 2.46 | 19.7 | 3.01 | 13.7 | 2.95 | > 100 | 2.11 | 2.39
CCSc1nc(NC(C)c2ccccc2)c2cnn(CO)c2n1 (stereo not given) |  | > 100 | > 100 | > 100 | > 100 | > 100 |  | > 100 |  |  | > 100 | 6.91 | 17.7 | 64.1 | > 100 | > 100 | 8.09 | 99.4 | 42.1 | 47.7
CN1CCN(Cc2ccc(NC(=O)c3cncc(C#Cc4c(N)ncc5c(F)cccc45)c3)cc2C(F)(F)F)CC1 |  | 1.08 | 0.65 | 1.17 | 1.71 | 1.76 |  | 0.305 |  |  | 0.388 | 0.854 | 1.64 | 4.32 | 0.832 | 1.52 | 0.812 | 2.18 | 0.0133 | 0.951
CON=C1C[C@]2(C[C@@H]3C[C@@H](C/C=C(\C)C[C@@H](C)/C=C/C=C4\CO[C@@H]5[C@H](O)C(C)=C[C@@H](C(=O)O3)[C@]45O)O2)O[C@H](/C(C)=C/C(C)C)[C@H]1C |  | 25.3 | 21.9 | 33.1 | 33.4 | 32.9 |  | 11.1 |  |  | 16.1 | 16.9 | 18 | 33.4 | 7.55 | 20.1 | 16.6 | 39.6 | 8.1 | 17.8
O=C(/C=C\c1cc(Br)ccc1O)/C=C/c1cc(Br)ccc1O |  | 1.84 | 2.72 | 3.08 | 4.03 | 4.09 |  | 0.451 |  |  | 0.651 | 1.54 | 0.897 | 3.84 | 0.814 | 2.17 | 1.25 | 39.2 | 1.25 | 2.05
O=C(CN1CCN(CCN2C(=O)c3cccc4cccc(c34)C2=O)CC1)Nc1ccc2ncsc2c1 |  | 16.5 | 25.4 | 22.2 | 23.7 | 23.7 |  | 3.61 |  |  | 8.63 | 5.65 | 11.9 | 30.1 | 5.92 | 19.6 | 43.3 | > 100 | 6.16 | 10.5
Cc1ccc(S(=O)(=O)OCC(=O)Nc2ccc(C(=O)O)c(O)c2)cc1 |  | 172 | 199 | 85 | 464 | 200 |  | 38.6 |  |  | 28.2 | 36.7 | 71.6 | 206 | 26.8 | 75.9 | 20.3 | 61.8 | 73.6 | 207
C[C@]12CCCN1CC1=NNC(=O)c3cc(F)cc4[nH]c2c1c34 |  | > 100 | 30.3 | 59.6 | > 100 | 73.6 |  | 19.2 |  |  | 18.5 | 25.1 | 23.2 | 99.6 | 32.6 | > 100 | 11.8 | 62.5 | 9.6 | 22.6
